# Assay results from US9061967B2 (priority 2010, dated 2015).
# Several values for one entry are separate records, joined by “and”; a condition that tells them apart may be missing. Equal entries are not always repeated.
# Tests used:
# [1] = system: rice blast (Magnaporthe grisea); test: microbe, parasite or virus in culture; type: cell-based; conditions: for Activity against rice blast in vitro (%): Table 10; for inhibition at 0.03 µg/mL / inhibition at 0.3 µg/mL: Pyricularia oryzae, read-out: Inhibition rate against rice blast (%)
# [2] = system: cucumber gray mold (Botrytis cinerea); test: microbe, parasite or virus in culture; type: cell-based; conditions: read-out: Inhibition rate against cucumber gray mold (%)
# [3] = system: cucumber downy mildew (Pseudoperonospora cubensis); test: whole plant or invertebrate; type: in vivo; conditions: for pest or weed control at 3.125 µg/mL / pest or weed control at 12.5 µg/mL / pest or weed control at 50 µg/mL: Pseudoperonospora cubensis, 168 h, read-out: Protectant activity (%) against cucumber downy mildew in vivo
# [4] = system: corn rust (Puccinia sorghi)
# [5] = system: rice sheath blight (Rhizoctonia solani Palo); type: cell-based
# [6] = system: cucumber fusarium wilt (Fusarium oxysporum f. sp.); type: cell-based
# [7] = system: pear scab (Fusicladium pirina); type: cell-based
# [8] = system: cotton nthracnose (Colletotrichum gossypii Southw.); type: cell-based
# [9] = system: rape sclertiniose (Sclerotinia sclerotiorum); type: cell-based
Compound,inhibition at 0.03 µg/mL [1] [%],inhibition at 0.3 µg/mL [1] [%],inhibition at 0.03 µg/mL [2] [%],inhibition at 0.1 µg/mL [2] [%],inhibition at 0.3 µg/mL [2] [%],pest or weed control at 3.125 µg/mL [3] [%],pest or weed control at 12.5 µg/mL [3] [%],pest or weed control at 50 µg/mL [3] [%],further results
Cc1cc([N+](=O)[O-])cc([N+](=O)[O-])c1Nc1c(Cl)cc(Cl)cc1Cl [contrast ACS],0,0,0,0,0,0,0,0,Activity against rice blast in vitro (%) ([1]; 0.9 mg/L): 0%; Activity against rice blast in vitro (%) ([1]; 2.8 mg/L): 0%; Activity against rice blast in vitro (%) ([1]; 8.3 mg/L): 0%; Activity against rice blast in vitro (%) ([1]; 25 mg/L): 0%; Protectant activity against cucumber downy mildew in vivo (%) ([3]; in vivo): 0%; Protectant activity (%) against corn rust in vivo [4]: 0%
COc1ccc(C(=CC(=O)N2CCOCC2)c2ccc(Cl)cc2)cc1OC [dimethomorph],,,,,,35,80,100,
c1ccc(Nc2ccccc2)cc1 [diphenylamine],,,,,,0,0,0,
O=[N+]([O-])c1cc(C(F)(F)F)c(Cl)c([N+](=O)[O-])c1Nc1ncc(C(F)(F)F)cc1Cl [fluazinam],50,100,0,80,100,40,95,100,"Activity in vitro (%), rice sheath blight [5]: 97% and 83% and 69%; Activity in vitro (%), cucumber fusarium wilt [6]: 92% and 85% and 56%; Activity in vitro (%), pear scab [7]: 94% and 89% and 47%; Activity in vitro (%), cotton nthracnose [8]: 100% and 97% and 71%; Activity in vitro (%), rape sclertiniose [9]: 100% and 97% and 57%"
Cc1c(Cl)c([N+](=O)[O-])cc([N+](=O)[O-])c1Cl [intermediate B],,,,,,0,0,0,
Nc1c(Cl)cc([N+](=O)[O-])cc1Cl [intermediate C],,,,,,0,0,0,
